{
  "source": "ChEMBL document CHEMBL3393059",
  "about": "“Optimisation of in silico derived 2-aminobenzimidazole hits as unprecedented selective kappa opioid receptor agonists” (Bioorg Med Chem Lett, 2015)",
  "assay_type_in_all_cases": "ADME, organism-based",
  "parameters_in_all_cases": "dose 30 mg/kg, route oral",
  "key": {"[1]": {"experiment": "Cmax in mouse at 30 mg/kg, po", "conditions": "in vivo"}, "[2]": {"experiment": "Half life in mouse at 30 mg/kg, po", "conditions": "in vivo"}, "[3]": {"experiment": "AUC (0 to time) in mouse at 30 mg/kg, po", "conditions": "plasma"}},
  "data": [
    {"compound": "CN(C(=O)C(c1ccccc1)c1ccccc1)[C@H](CN1CC[C@H](O)C1)c1ccccc1", "note": "[ASIMADOLINE]", "values": [
      {"measurement": "Cmax", "setting": "[1]", "value": 507, "unit": "ng/mL"},
      {"measurement": "half-life", "setting": "[2]", "value": 30, "unit": "min"},
      {"measurement": "AUC", "setting": "[3]", "value": 493, "unit": "ng·h/mL"}
    ]}
  ]
}
